{"source": "paper PMC7672424", "about": "(Nucleic Acids Research, 2020)", "key": {"[1]": {"system": "TTA45 (DNA, G4) GGGTTAGGGTTAGGGTTAGGGTTAGGGTTAGGGTTAGGGTTAGGG", "assay": "CD melting", "settings": "50 mM K+; 10 mM Tris-HCl pH 7.4; 5 µM DNA, 20 µM compound"}, "[2]": {"system": "TTA51/T3 (DNA, G4) GGGTTAGGGTTAGGGTTAGGGTTATTATTAGGGTTAGGGTTAGGGTTAGGG", "assay": "fluorescence titration", "settings": "100 mM K+ (KCl) plus potassium phosphate; 10 mM K2HPO4/KH2PO4 pH 7.0; 3 µM compound, DNA 0-10 µM; weaker than TTA45"}, "HT29": {"system": "HT29", "assay": "Cell cytotoxicity assay (CCK8)", "assay_type": "cell-based, human", "settings": "Homo sapiens, HT-29; CCK8, 48 h treatment", "procedure": "(§1) The cell growth effect of BMPQ-1 against different cell lines were tested via measuring the quantity of living cells using the Cell Counting Kit-8 (CCK8) (DOJINDO, Japan) according to the instruction. Cells were seeded in a 96-well plate (5 × 10^3 cells/well) and grown for 24 h for attachment. Then the cells were treated with various concentrations of BMPQ-1 and incubated at 37°C with 5% CO2 for 48 h. After incubation, the old medium was discarded followed by adding fresh medium containing 10% FBS in DMEM. Then 100 μl CCK-8 (10% in grow medium) was added into each well, and the cells were further incubated for 1 h. The optical density (OD) was detected at 450 nm by an automated microplate reader (Bio-Rad). The IC50 values were derived from the curves of the mean percentage of survival against the drug concentration. All the experiments were performed in triplicate.\n(§2) A Cell Counting Kit-8 (CCK8) (DOJINDO, Japan) was employed to evaluate the cytotoxicity of BMPQ-1 on human alveolar basal epithelial cancer cell line (A549), human hepatocellular carcinoma cancer cell line (HepG2), human gastric cancer cell line (MGC-803), human colon adenocarcinoma (HT29), human normal liver Cells (HL-7702)."}, "MGC-803": {"system": "MGC-803", "assay": "Cell cytotoxicity assay (CCK8)", "assay_type": "cell-based, human", "settings": "Homo sapiens, MGC-803; CCK8, 48 h treatment", "procedure": "as §1, §2"}, "HepG2": {"system": "HepG2", "assay": "Cell cytotoxicity assay (CCK8)", "assay_type": "cell-based, human", "settings": "Homo sapiens, HepG2; CCK8, 48 h treatment", "procedure": "as §1, §2"}, "A549": {"system": "A549", "assay": "Cell cytotoxicity assay (CCK8)", "assay_type": "cell-based, human", "settings": "Homo sapiens, A549; CCK8, 48 h treatment", "procedure": "as §1, §2"}, "[3]": {"system": "FAM-TTA45-TAMRA (DNA, G4) GGGTTAGGGTTAGGGTTAGGGTTAGGGTTAGGGTTAGGGTTAGGG", "assay": "FRET melting", "settings": "100 mM K+ (KCl) plus potassium phosphate; 10 mM K2HPO4/KH2PO4 pH 7.0; 0.5 µM DNA, 20 µM compound"}, "c-KIT1": {"system": "c-KIT1", "assay": "CD melting, DNA stabilization", "assay_type": "binding", "settings": "5 µM DNA, 20 µM BMPQ-1, 10 mM Tris-HCl, 50 mM KCl, pH 7.4"}, "TTA69": {"system": "TTA69", "assay": "CD melting, DNA stabilization", "assay_type": "binding, human", "settings": "5 µM DNA, 20 µM BMPQ-1, 10 mM Tris-HCl, 50 mM KCl, pH 7.4"}, "[4]": {"system": "FAM-TTA45-Cy5 (DNA, G4) GGGTTAGGGTTAGGGTTAGGGTTAGGGTTAGGGTTAGGGTTAGGG", "assay": "smFRET population titration", "settings": "100 mM K+; 10 mM Tris-HCl pH 7.4, 0.01% Tween 20, 1 mM ascorbic acid, 1 mM methylviologen, room temperature; apparent"}, "[5]": {"system": "monomeric G-quadruplexes (TBA, c-KIT1, c-KIT2, c-MYC Pu22, VEGF, TTA), duplex (19AT), single strand (dT30)", "assay": "Fluorescence response of BMPQ-1 to DNA", "assay_type": "binding", "settings": "3 μM BMPQ-1, 4 μM other DNAs, λex = 395 nm", "procedure": "Figure 1. (A) Structure of BMPQ-1. (B) Fluorescence spectra of BMPQ-1 at λex = 395 nm in the absence or presence of dimeric G-quadruplexes (TTA45), monomeric G-quadruplexes (c-KIT1, c-KIT2, c-MYCPu22, TTA, VEGF, TBA), trinucleotide DNA (CGG12), duplex DNA (19AT) and single-stranded DNA (dT30). The concentration of BMPQ-1 was 3 μM. The concentration of TTA45 was 2 μM and DNAs with other structures were 4 μM. (C) Fluorescence spectra of 6 μM BMPQ-1 at λex = 395 nm in the absence or presence of 2 μM telomeric G-quadruplexes. Oligonucleotide samples were prepared in solution with 10 mM K2HPO4/KH2PO4, pH 7.0, 100 mM KCl. (D) Effect of BMPQ-1 on the CD spectra of 10 μM TTA45 in 10 mM Tris-HCl buffer (pH 7.4) containing 100 mM KCl.\nG-quadruplex forming oligonucleotides were annealed in the buffer (10 mM K2HPO4/KH2PO4 pH 7.0, 100 mM KCl) by heating to 95°C for 5 min, followed by gradual cooling to room temperature. Fluorescence spectra were detected by RF-5301PC spectrofluorophotometer (Shimadzu, Japan) at room temperature. The spectra were recorded with 5 nm excitation and emission slit widths. […] For the fluorescence measurements between BMPQ-1 and different DNA sequences, the final concentrations of multimeric G-quadruplex forming oligonucleotides were 2 μM and other DNA oligonucleotides were 4 μM."}}}
{"smiles": "Cc1ccc(Cn2cc3c(-c4ccc5c(c4)OCO5)nnc-3c3cc4c(cc32)OCO4)cc1", "note": "[BMPQ-1]", "values": [{"measurement": "ΔTm", "setting": "[1]", "value": 14.6, "unit": "°C"}, {"measurement": "binding", "setting": "[2]", "value": "yes"}, {"measurement": "IC50", "setting": "HT29", "value": "1400 ± 60", "unit": "nM"}, {"measurement": "IC50", "setting": "MGC-803", "value": "2360 ± 480", "unit": "nM"}, {"measurement": "IC50", "setting": "HepG2", "value": "2140 ± 260", "unit": "nM"}, {"measurement": "IC50", "setting": "A549", "value": "1460 ± 160", "unit": "nM"}, {"measurement": "ΔTm", "setting": "[3]", "value": "16.09 ± 1.79", "unit": "°C"}, {"measurement": "ΔTm (°C) c-KIT1", "setting": "c-KIT1", "value": 6.6, "unit": "°C"}, {"measurement": "ΔTm (°C) TTA69", "setting": "TTA69", "value": 13.8, "unit": "°C"}, {"measurement": "KD", "setting": "[4]", "value": "527 ± 68.9", "unit": "nM"}, {"measurement": "fluorescence enhancement", "setting": "[5]", "value": "less than 3 fold"}]}
